The values that follow come from ChEMBL document CHEMBL1145982, “Novel dihydrofolate reductase inhibitors. Structure-based versus diversity-based library design and high-throughput synthesis and screening” (J Med Chem, 2003).

Values after ≈ are worked out from the molar mass of the structure shown. Bounds are passed on as bounds.

One assay is filed under the species Homo sapiens. Put plainly: Selectivity ratio against human and […] ATCC 49619 dihydrofolate reductase.
In assay [1] the target is T1, Dihydrofolate reductase (Staphylococcus aureus, UniProt P0A017). In words: Inhibitory activity against TMP-Resistance Dihydrofolate reductase from Staphylococcus aureus 157/4696.
T1 sequence (P0A017 2-159 limits assumed): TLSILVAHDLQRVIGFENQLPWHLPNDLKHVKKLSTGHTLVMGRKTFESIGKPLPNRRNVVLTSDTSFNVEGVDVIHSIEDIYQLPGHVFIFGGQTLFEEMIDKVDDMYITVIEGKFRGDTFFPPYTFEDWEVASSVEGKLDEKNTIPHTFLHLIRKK
Assay [2] deals with T2, Dihydrofolate reductase (Homo sapiens) (UniProt P00374).
T2 sequence (whole entry): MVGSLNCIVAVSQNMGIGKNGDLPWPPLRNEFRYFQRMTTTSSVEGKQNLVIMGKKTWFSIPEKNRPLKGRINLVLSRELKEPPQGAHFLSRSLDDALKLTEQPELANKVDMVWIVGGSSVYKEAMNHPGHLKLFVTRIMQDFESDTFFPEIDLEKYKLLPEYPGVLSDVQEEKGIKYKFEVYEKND
The conditions noted are these: Staphylococcus.
Description: Antibacterial activity against TMP-Resistant Dihydrofolate reductase from Staphylococcus aureus 157/4696

Assay [3] concerns the target Dihydrofolate reductase (Staphylococcus aureus) (UniProt P0A017).
Description: Tested for inhibition of TMP-Resistant Dihydrofolate reductase from Staphylococcus pneumoniae 1/1.
For assay [4], the target named is T2, Dihydrofolate reductase (Homo sapiens). The settings on record: Staphylococcus. The source holds these as a separate data set.
Description: Inhibitory activity of TMP-Resistance Dihydrofolate reductase against Staphylococcus aureus 157/4696
The target of assay [5] is T1, Dihydrofolate reductase. Put plainly: Tested for inhibition of TMP-Resistant Dihydrofolate reductase from Staphylococcus aureus 157/4696.
In assay [6] the target is T2, Dihydrofolate reductase (Homo sapiens). The conditions noted are these: Staphylococcus; ATCC 49619.
Description: Antibacterial activity against TMP-susceptible DHFR from Staphylococcus pneumoniae ATCC 49619
Assay [7] shares this target. The settings on record: Staphylococcus; ATCC 49619. This is another data set of the same source.
Description: Antibacterial activity of TMP-susceptible DHFR against Staphylococcus pneumoniae ATCC 49619
In assay [8] the target is T1, Dihydrofolate reductase. In words: Inhibitory activity of TMP-Resistance DHFR against Staphylococcus aureus 157/4696.

Chain of Dihydrofolate reductase (Staphylococcus aureus) (P0A017 2-159 limits assumed): as the sequence (P0A017 2-159 limits assumed) above

Take `COc1ccc2c(c1)CN(Cc1cnc(N)nc1N)CC2c1cccc([N+](=O)[O-])c1` (centres undefined): in the assay listed under Homo sapiens, the Ratio is 16700.
As to `COc1cc2c(cc1OC)C(c1ccc(Cl)cc1Cl)CN(Cc1cnc(N)nc1N)C2` (centres undefined), the IC50 (as a rule, the concentration needed to halve the response being measured) against Dihydrofolate reductase [1] was 2 µM. Also, the Ratio in the assay listed under Homo sapiens amounted to 243.
On to `CC1c2cc(Cc3ccccc3)c(-c3ccccc3)n2CCN1Cc1cnc(N)nc1N` (centres undefined), for which the Ratio in the assay listed under Homo sapiens came to 40.
In the case of `CSc1c2n(c3cc(Cl)ccc13)CCN(Cc1cnc(N)nc1N)C2`, the Ratio in the assay listed under Homo sapiens stood at 2600.
For the compound `COc1cc2c(cc1OC)CN(Cc1cnc(N)nc1N)CC2`, the MIC in assay [2] is 4 µg/mL (≈ 12.7 µM); in [3], greater than 32 µg/mL; in assay [4], 4 µg/mL (≈ 12.7 µM); in assay [6], 0.5 µg/mL (≈ 1.59 µM); in assay [7], 0.5 µg/mL (≈ 1.59 µM). The IC50 was greater than 100 µM against Dihydrofolate reductase [5] and 30 µM at Dihydrofolate reductase [8].
In the case of `CC1c2ccc3c4ccccc4n(C)c3c2CCN1Cc1cnc(N)nc1N` (centres undefined), the Ratio in the assay listed under Homo sapiens turned out to be 21.
As for `COc1cc2c(c3c1OCO3)[C@@H](C)N(Cc1cnc(N)nc1N)CC2`, on Dihydrofolate reductase [1], the IC50 was 1.3 µM.
For `COc1cc2c(cc1OC)C(C)N(Cc1cnc(N)nc1N)CC2` (centres undefined), the Ratio in the assay listed under Homo sapiens was 15.
The compound `Nc1ncc(CN2CCc3ccccc3C2)c(N)n1` yielded an IC50 at Dihydrofolate reductase [1] of 40 µM. In addition, the Ratio in the assay filed under Homo sapiens was greater than 90.
Take `Nc1ncc(CN2CCc3c([nH]c4ccccc34)C2)c(N)n1`: in the assay filed under Homo sapiens, the Ratio worked out at 45000.
In the case of `COc1cc2c(c3c1OCO3)[C@H](C)N(Cc1cnc(N)nc1N)CC2`, inhibition on Dihydrofolate reductase [1] was half-maximal at 5.4 µM (IC50).
